How the values were obtained:
[1] = tested on: peripheral blood-derived monocytes; assay: MTT cytotoxicity assay with monocytes; assay type: cell-based, human; conditions: lower concentrations (less than 30 µM); MTT and LDH assays, Figure S3
Protocol: Human primary leukocytes were isolated from peripheral blood of healthy adult volunteers provided by the Institute of Transfusion Medicine at the University Hospital Greifswald as described before. All methods were performed in accordance with the Declaration of Helsinki. […] The remaining erythrocytes were removed by hypotonic lysis using water, and resulting polymorphonuclear neutrophils (PMNs) were resuspended in PBS containing 0.1% (w/v) glucose (PG buffer) or PG buffer with 1 mM CaCl2 (PGC buffer) as indicated.
Then, cells were incubated with 5 mg/mL MTT in PBS until the blue staining of the vehicle-containing control cells. Formazan formation was stopped by 100 µL of 10% (w/v in 20 mM HCl) SDS lysis buffer and followed by shaking overnight. Finally, absorbance was measured at 570 nm with a SpectraMax® i3x multi-mode detection platform (Molecular Devices, San Jose, CA, USA). The pan-protein kinase inhibitor staurosporine (1 µM) was used as a cytotoxic control inhibitor.

LTA4H [2] = biological target: T1, LTA4H (Homo sapiens, UniProt P09960); assay: Thermal shift assay with differential scanning fluorimetry; assay type: binding; parameters: made in house; host or cells: Escherichia coli JM101; conditions: for Tm of LTA4H upon the addition of inhibitor: 0 to 200 µM inhibitor, increased from 57.5 °C without inhibitor
T1 sequence (P09960 1-611): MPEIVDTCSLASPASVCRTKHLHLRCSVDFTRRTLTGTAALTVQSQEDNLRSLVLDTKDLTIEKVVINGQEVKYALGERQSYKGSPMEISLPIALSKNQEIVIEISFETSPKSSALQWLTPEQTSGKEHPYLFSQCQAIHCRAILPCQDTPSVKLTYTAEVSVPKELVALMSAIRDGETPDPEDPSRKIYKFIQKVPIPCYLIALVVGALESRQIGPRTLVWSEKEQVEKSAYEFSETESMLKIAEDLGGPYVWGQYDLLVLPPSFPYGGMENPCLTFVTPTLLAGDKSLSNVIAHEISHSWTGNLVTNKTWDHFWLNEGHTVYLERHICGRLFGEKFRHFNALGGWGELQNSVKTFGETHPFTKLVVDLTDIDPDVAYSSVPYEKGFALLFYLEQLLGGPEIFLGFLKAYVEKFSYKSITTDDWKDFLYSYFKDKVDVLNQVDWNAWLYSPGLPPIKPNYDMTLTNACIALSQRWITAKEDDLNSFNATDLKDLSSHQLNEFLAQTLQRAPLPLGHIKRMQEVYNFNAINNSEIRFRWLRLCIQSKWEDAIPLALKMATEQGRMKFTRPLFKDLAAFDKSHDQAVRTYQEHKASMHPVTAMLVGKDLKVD
Protocol: DSF, also known as the thermal shift assay, was carried out in 25 mM Tris-HCl pH 7.8 containing 50 ng/µL LTA4H, 2X SYPRO Orange (Life Technologies, Carlsbad, CA, USA), 3% DMSO or 0–300 µM of an inhibitor. The assay was performed in a white 96-well Multiplate PCR Plate (Bio-Rad, Hercules, CA, USA) covered with the iCycler iQ Optical tape (Bio-Rad, Hercules, CA, USA). The total volume per well was 25 μL, consisting of 1 μL SYPRO Orange solution. Relative fluorescence intensities (RFU) were recorded with a C1000 Touch Thermal Cycler (Bio-Rad, Hercules, CA, USA) and a CFX-96 Real-Time System. […] The melting temperature (Tm) for each condition were obtained from the first derivative of melting curves and the affinity (Kd) and stability (Kb) values were calculated based on the Tm and concentration–response curves.

LTA4H [3] = biological target: T1, LTA4H; assay: Isothermal titration calorimetry with LTA4H; assay type: binding; parameters: made in house; host or cells: Escherichia coli JM101; conditions: 25 mM Tris pH 7.8, 3% DMSO, 25 °C
Protocol: ITC was performed with an iTC200 calorimeter (MicroCal Inc., Northampton, MA, USA) equipped with a […] sample cell. Measurements were performed in 25 mM Tris-HCl pH 7.8 supplemented with 3% DMSO at 25 °C. […] After the ITC system was equilibrated, the initial injection of an inhibitor was performed in 0.5–1.0 µL followed by 15 injections in 2.5 µL. The time between each injection was 1.5–3.0 min to ensure the complete equilibration of the system. Collected data were analyzed by MicroCal PEAK-ITC Analysis Software. Control experiments were performed with identical conditions using only inhibitor, protein or buffer with 3% DMSO.

[4] = from Tm concentration–response curves, read-out: Kd by differential scanning fluorimetry
[5] = mean ± SEM, n = 4, read-out: dissociation constant (Kd) by ITC
[6] = read-out: dissociation constant (Kd) by ITC

Compound | safety in human leukocytes (cytotoxicity assays) [1] | Tm of LTA4H upon the addition of inhibitor (LTA4H [2]) [°C] | Kd (LTA4H [2]; [4]) [nM] | Kd (LTA4H [3]; [5]) [nM] | Kd (LTA4H [3]; [6]) [nM] | Kd (LTA4H [2]) [nM] | Kd (LTA4H [3]; dissociation constant (Kd) by ITC) [nM] | Kd (LTA4H [3]; dissociation constant (Kd) by ITC, mean ± SEM, n = 4) [nM]
Nc1nc(-c2ccc(Cc3ccccc3)cc2)cs1 [ARM1, 4-(4-benzylphenyl) thiazol-2-amine, reference compound] | safe | 61.2 | 240 ± 10 | 248 ± 53.2 | 250 | – | – | –
Nc1nc(-c2ccc(Cc3ccccc3)cc2)c[se]1 [TTSe, 4-(4-benzylphenyl) selenazol-2-amine] | safe | 61.9 | – | – | – | 300 ± 20 | 370 | 367 ± 10.7
Nc1nc(-c2ccc(Cc3ccccc3)cc2)co1 [TTO, 4-(4-benzylphenyl) oxazol-2-amine] | safe | 60.7 | 510 ± 40 | 326 ± 29.4 | 330 | – | – | –
